# In US20090325964A1, “Piperazine Metabotropic Glutamate Receptor 5 (MGLUR5) Negative Allosteric Modulators For Anxiety/Depression” (Wyeth, priority 2008, published 2009):
# Target: T1, rat mGluR5 receptor (Rattus norvegicus, UniProt P31424)
# T1 construct: expressed in transfected cells; host or cells: HEK-293
# Test: [3H]-MPEP displacement binding assay, HEK-293 cell membranes expressing rat mGluR5
# Conditions: [3H]-MPEP displacement, rat mGluR5; no Ki given; read-out: IC50 (printed in the Median Ki column instead of a Ki)
# Procedure, shortened: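 Membranes from HEK-293 cells expressing rat mGluR5 (12-25 μg protein), incubated 60 min at room temperature with 4 nM [3H]-MPEP in 50 mM Tris pH 7.5, then filtered. Nonspecific binding defined with 10 μM MPEP.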
# T1 sequence (P31424 21-1203): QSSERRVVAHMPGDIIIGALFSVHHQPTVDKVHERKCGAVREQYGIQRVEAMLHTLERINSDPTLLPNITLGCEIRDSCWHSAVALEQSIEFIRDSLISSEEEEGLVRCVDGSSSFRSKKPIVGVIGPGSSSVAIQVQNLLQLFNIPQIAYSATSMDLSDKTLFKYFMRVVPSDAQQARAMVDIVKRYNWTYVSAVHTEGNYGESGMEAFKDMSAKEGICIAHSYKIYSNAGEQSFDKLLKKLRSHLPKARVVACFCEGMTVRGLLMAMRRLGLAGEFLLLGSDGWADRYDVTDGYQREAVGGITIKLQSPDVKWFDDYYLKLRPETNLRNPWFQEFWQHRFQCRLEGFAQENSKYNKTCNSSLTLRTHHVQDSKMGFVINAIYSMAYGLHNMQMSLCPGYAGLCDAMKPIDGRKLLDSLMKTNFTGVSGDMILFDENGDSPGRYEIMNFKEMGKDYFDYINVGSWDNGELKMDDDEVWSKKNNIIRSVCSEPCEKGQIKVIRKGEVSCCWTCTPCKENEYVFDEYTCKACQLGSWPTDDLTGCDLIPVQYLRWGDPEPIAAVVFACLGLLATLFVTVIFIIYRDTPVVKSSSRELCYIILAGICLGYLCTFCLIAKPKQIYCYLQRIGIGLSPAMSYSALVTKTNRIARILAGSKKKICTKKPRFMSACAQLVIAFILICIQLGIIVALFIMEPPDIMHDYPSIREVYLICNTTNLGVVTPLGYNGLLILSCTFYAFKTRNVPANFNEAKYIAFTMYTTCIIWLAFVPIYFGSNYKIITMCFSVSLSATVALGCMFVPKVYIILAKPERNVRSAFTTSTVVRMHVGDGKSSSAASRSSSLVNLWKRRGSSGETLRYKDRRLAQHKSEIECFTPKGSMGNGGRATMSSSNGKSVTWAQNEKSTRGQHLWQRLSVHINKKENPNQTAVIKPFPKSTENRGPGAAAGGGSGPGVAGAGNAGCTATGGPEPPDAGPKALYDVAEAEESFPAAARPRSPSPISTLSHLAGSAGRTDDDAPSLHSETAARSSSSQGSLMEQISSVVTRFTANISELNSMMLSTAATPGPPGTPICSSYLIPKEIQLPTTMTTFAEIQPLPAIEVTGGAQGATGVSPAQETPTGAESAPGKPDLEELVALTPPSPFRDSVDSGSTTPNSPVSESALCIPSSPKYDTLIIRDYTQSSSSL
row,IC50 [µM],Compound
1,> 10,"COc1ccc(C(=O)N2CCN(S(=O)(=O)c3ccc(-n4cnnn4)c(OC)c3)CC2)cc1C#Cc1ccccn1 [Compound 272, 1-[4-methoxy-3-(pyridin-2-ylethynyl)benzoyl]-4-{[3-methoxy-4-(1H-tetrazol-1-yl)phenyl]sulfonyl}piperazine]"
2,> 10,"COc1ccc(C(=O)N2CCN(c3nc4ccc([N+](=O)[O-])cc4s3)CC2)cc1C#Cc1ccccn1 [Compound 282, 2-{4-[4-methoxy-3-(pyridin-2-ylethynyl)benzoyl]piperazin-1-yl}-6-nitro-1,3-benzothiazole]"
3,> 10,"COc1ccc(C(=O)N2CCN(c3cc4ccccc4s3)CC2)cc1C#Cc1ccccn1 [Compound 290, 1-(1-benzothiophen-2-yl)-4-[4-methoxy-3-(pyridin-2-ylethynyl)benzoyl]piperazine]"

# Same assay, conditions: [3H]-MPEP displacement, rat mGluR5; read-out: Median Ki
row,Compound,Ki [µM]
1,"COc1ccc(C(=O)N2CCN(c3cc(C)ccc3C)CC2)cc1C#Cc1ccccn1 [Compound 242, 1-(2,5-dimethylphenyl)-4-[4-methoxy-3-(pyridin-2-ylethynyl)benzoyl]piperazine]",1.01
2,"COc1ccc(C(=O)N2CCN(c3ccccc3C(F)(F)F)CC2)cc1C#Cc1ccccn1 [Compound 246, 1-[4-methoxy-3-(pyridin-2-ylethynyl)benzoyl]-4-[2-(trifluoromethyl)phenyl]piperazine]",2.84
3,"COc1ccc(C(=O)N2CCN(C(=O)C3CCCO3)CC2)cc1C#Cc1ccccn1 (stereo not shown) [Compound 249, 1-[4-methoxy-3-(pyridin-2-ylethynyl)benzoyl]-4-(tetrahydrofuran-2-ylcarbonyl)piperazine]",0.181
4,"COc1ccc(C(=O)N2CCN(c3sc(S(N)(=O)=O)cc3[N+](=O)[O-])CC2)cc1C#Cc1ccccn1 [Compound 254, 5-{4-[4-methoxy-3-(pyridin-2-ylethynyl)benzoyl]piperazin-1-yl}-4-nitrothiophene-2-sulfonamide]",0.108
5,"COc1ccc(C(=O)N2CCN(c3cc4ccc(Cl)cc4cn3)CC2)cc1C#Cc1ccccn1 [Compound 260, 7-chloro-3-{4-[4-methoxy-3-(pyridin-2-ylethynyl)benzoyl]piperazin-1-yl}isoquinoline]",0.951
6,"COc1ccc(C(=O)N2CCN(c3cc4ccc(Br)cc4cn3)CC2)cc1C#Cc1ccccn1 [Compound 261, 7-bromo-3-{4-[4-methoxy-3-(pyridin-2-ylethynyl)benzoyl]piperazin-1-yl}isoquinoline]",1.38
7,"COc1ccc(C(=O)N2CCN(C(=O)c3ccccc3OC)CC2)cc1C#Cc1ccccn1 [Compound 263, 1-(2-methoxybenzoyl)-4-[4-methoxy-3-(pyridin-2-ylethynyl)benzoyl]piperazine]",0.169
8,"COc1cccc(C(=O)N2CCN(C(=O)c3ccc(OC)c(C#Cc4ccccn4)c3)CC2)c1 [Compound 264, 1-(3-methoxybenzoyl)-4-[4-methoxy-3-(pyridin-2-ylethynyl)benzoyl]piperazine]",0.106
9,"COc1ccc(C(=O)N2CCN(S(=O)(=O)c3ccc(Br)s3)CC2)cc1C#Cc1ccccn1 [Compound 269, 1-[(5-bromo-2-thienyl)sulfonyl]-4-[4-methoxy-3-(pyridin-2-ylethynyl)benzoyl]piperazine]",0.049
10,"COc1ccc(C(=O)N2CCN(S(=O)(=O)c3c(C)noc3C)CC2)cc1C#Cc1ccccn1 [Compound 270, 1-[(3,5-dimethylisoxazol-4-yl)sulfonyl]-4-[4-methoxy-3-(pyridin-2-ylethynyl)benzoyl]piperazine]",1.54
11,"COc1ccc(C(=O)N2CCN(c3cc(Cl)cc(Cl)c3)CC2)cc1C#Cc1ccccn1 [Compound 271, 1-(3,5-dichlorophenyl)-4-[4-methoxy-3-(pyridin-2-ylethynyl)benzoyl]piperazine]",0.018
12,"COc1ccc(C(=O)N2CCN(S(=O)(=O)c3cccc4c(N(C)C)cccc34)CC2)cc1C#Cc1ccccn1 [Compound 273, 5-({4-[4-methoxy-3-(pyridin-2-ylethynyl)benzoyl]piperazin-1-yl}sulfonyl)-N,N-dimethylnaphthalen-1-amine]",1.74
13,"COc1ccc(C(=O)N2CCN(c3nnc([N+](=O)[O-])s3)CC2)cc1C#Cc1ccccn1 [Compound 276, 1-[4-methoxy-3-(pyridin-2-ylethynyl)benzoyl]-4-(5-nitro-1,3,4-thiadiazol-2-yl)piperazine]",0.139
14,"COc1ccc(C(=O)N2CCN(Cc3c(Cl)cccc3Cl)CC2)cc1C#Cc1ccccn1 [Compound 277, 1-(2,6-dichlorobenzyl)-4-[4-methoxy-3-(pyridin-2-ylethynyl)benzoyl]piperazine]",0.272
15,"COc1ccc(C(=O)N2CCN(S(=O)(=O)c3ccccc3Cl)CC2)cc1C#Cc1ccccn1 [Compound 278, 1-[(2-chlorophenyl)sulfonyl]-4-[4-methoxy-3-(pyridin-2-ylethynyl)benzoyl]piperazine]",0.876

# Second part, the compound after the results:
row,Ki [µM],Compound
1,0.832,"COc1ccc(C(=O)N2CCN(S(=O)(=O)c3cccc(Cl)c3)CC2)cc1C#Cc1ccccn1 [Compound 279, 1-[(3-chlorophenyl)sulfonyl]-4-[4-methoxy-3-(pyridin-2-ylethynyl)benzoyl]piperazine]"
2,0.197,"COc1ccc(C(=O)N2CCN(c3nc(-c4ccccc4)ns3)CC2)cc1C#Cc1ccccn1 [Compound 281, 1-[4-methoxy-3-(pyridin-2-ylethynyl)benzoyl]-4-(3-phenyl-1,2,4-thiadiazol-5-yl)piperazine]"
3,2.31,"COc1ccc(C(=O)N2CCN(c3nnc(-c4ncc([N+](=O)[O-])n4C)s3)CC2)cc1C#Cc1ccccn1 [Compound 283, 1-[4-methoxy-3-(pyridin-2-ylethynyl)benzoyl]-4-[5-(1-methyl-5-nitro-1H-imidazol-2-yl)-1,3,4-thiadiazol-2-yl]piperazine]"
4,0.376,"COc1ccc(C(=O)N2CCN(S(=O)(=O)c3ccc(-n4cnnn4)cc3)CC2)cc1C#Cc1ccccn1 [Compound 284, 1-[4-methoxy-3-(pyridin-2-ylethynyl)benzoyl]-4-{[4-(1H-tetrazol-1-yl)phenyl]sulfonyl}piperazine]"
5,0.17,"COc1ccc(C(=O)N2CCN(Cc3ccc(Cl)c(Cl)c3)CC2)cc1C#Cc1ccccn1 [Compound 288, 1-(3,4-dichlorobenzyl)-4-[4-methoxy-3-(pyridin-2-ylethynyl)benzoyl]piperazine]"
6,0.269,"COc1ccc(C(=O)N2CCN(Cc3c(F)cccc3Cl)CC2)cc1C#Cc1ccccn1 [Compound 289, 1-(2-chloro-6-fluorobenzyl)-4-[4-methoxy-3-(pyridin-2-ylethynyl)benzoyl]piperazine]"
7,0.199,"COc1ccc(C(=O)N2CCN(c3nnc(-c4ccccc4)[nH]3)CC2)cc1C#Cc1ccccn1 [Compound 291, 1-[4-methoxy-3-(pyridin-2-ylethynyl)benzoyl]-4-(5-phenyl-4H-1,2,4-triazol-3-yl)piperazine]"
8,0.099,"COc1ccc(C(=O)N2CCN(c3cc(Cl)nc(SC)n3)CC2)cc1C#Cc1ccccn1 [Compound 294, 4-chloro-6-{4-[4-methoxy-3-(pyridin-2-ylethynyl)benzoyl]piperazin-1-yl}-2-(methylthio)pyrimidine]"
9,0.102,"COc1ccc(C(=O)N2CCN(c3nc(Cl)ncc3F)CC2)cc1C#Cc1ccccn1 [Compound 295, 2-chloro-5-fluoro-4-{4-[4-methoxy-3-(pyridin-2-ylethynyl)benzoyl]piperazin-1-yl}pyrimidine]"
10,0.159,"COc1ccc(C(=O)N2CCN(c3cc(Cl)nc(C)n3)CC2)cc1C#Cc1ccccn1 [Compound 297, 4-chloro-6-{4-[4-methoxy-3-(pyridin-2-ylethynyl)benzoyl]piperazin-1-yl}-2-methylpyrimidine]"
11,0.229,"COc1nc(OC)nc(N2CCN(C(=O)c3ccc(OC)c(C#Cc4ccccn4)c3)CC2)n1 [Compound 305, 2,4-dimethoxy-6-{4-[4-methoxy-3-(pyridin-2-ylethynyl)benzoyl]piperazin-1-yl}-1,3,5-triazine]"
12,0.745,"Cc1ccc(C(=O)N2CCN(c3ncc(Cl)cc3Cl)CC2)cc1C#Cc1ccccn1 [Compound 310, 1-(3,5-dichloropyridin-2-yl)-4-[4-methyl-3-(pyridin-2-ylethynyl)benzoyl]piperazine]"
13,0.14,"Cc1ccc(C(=O)N2CCN(c3ncccc3Cl)CC2)cc1C#Cc1ccccn1 [Compound 311, 1-(3-chloropyridin-2-yl)-4-[4-methyl-3-(pyridin-2-ylethynyl)benzoyl]piperazine]"
14,0.084,"O=C(c1ccc(F)c(C#Cc2ccccn2)c1)N1CCN(c2ncccn2)CC1 [Compound 312, 2-{4-[4-Fluoro-3-(pyridin-2-ylethynyl)benzoyl]piperazin-1-yl}pyrimidine]"
15,1.84,"O=C(c1ccc(F)c(C#Cc2ccccn2)c1)N1CCN(c2ncc(Cl)cc2Cl)CC1 [Compound 314, 1-(3,5-dichloropyridin-2-yl)-4-[4-fluoro-3-(pyridin-2-ylethynyl)benzoyl]piperazine]"
16,0.27,"O=C(c1ccc(F)c(C#Cc2ccccn2)c1)N1CCN(c2ncccc2Cl)CC1 [Compound 315, 1-(3-chloropyridin-2-yl)-4-[4-fluoro-3-(pyridin-2-ylethynyl)benzoyl]piperazine]"
17,0.652,"CCOc1ccc(C(=O)N2CCN(c3ncc(Cl)cc3Cl)CC2)cc1C#Cc1ccccn1 [Compound 319, 1-(3,5-dichloropyridin-2-yl)-4-[4-ethoxy-3-(pyridin-2-ylethynyl)benzoyl]piperazine]"
18,0.149,"CCOc1ccc(C(=O)N2CCN(c3ncccc3Cl)CC2)cc1C#Cc1ccccn1 [Compound 321, 1-(3-chloropyridin-2-yl)-4-[4-ethoxy-3-(pyridin-2-ylethynyl)benzoyl]piperazine]"
19,0.198,"O=C(c1ccc(OCC2CC2)c(C#Cc2ccccn2)c1)N1CCN(c2ccccn2)CC1 [Compound 323, 1-{[4-(cyclopropylmethoxy)-3-(pyridin-2-ylethynyl)phenyl]carbonyl}-4-pyridin-2-ylpiperazine]"
